The structures appear in SMILES notation. Like-named read-outs stand apart in the source and are kept apart here. Some results are limits rather than exact numbers.

Data set [1] in a line: Stability study of betel alkaloid standards in MeOH, HCl and NaOH at 45°C. The class given is physicochemical. The note with it: 1N NaOH; for fate of the carboxylic acids in basic conditions: after 24 h.
The conditions of data set [2]: for time of peak in saliva post-chewing: after one serving of betel nut/quid, n=4; for detected in saliva above the limit of detection up to (time after chewing): all participants.
Data set [3] is described as follows: Urine time course of betel biomarkers after betel chewing. The conditions noted are these: for return to baseline levels in urine (time post-chewing) / time of peak in urine post-chewing: participant 1.
For data set [4] the following is noted: cited from earlier work; for elimination half-life (t1/2): human urine.
The nature of data set [5]: Hair analysis for betel related compounds. It counts as in vivo, human. The note with it: for levels in hair: hair sample from a tobacco consumer.
The conditions of data set [6]: after infusion; cited from earlier work.

`O=C(O)C1=CCCNC1` [guvacine]: the “fate of the carboxylic acids in basic conditions” value in data set [1] is given as “disappeared”. Further, in data set [2] (saliva), the “return to baseline levels in saliva (time post-chewing)” value (shortened to “return to baseline levels in saliva”) was determined as 8 h, the “time of peak in saliva post-chewing” value was not above 2 h and the “detected in saliva above the limit of detection up to (time after chewing)” value (shortened to “detected in saliva above the limit”) is reported as “up to 8 h”. For the same compound, in data set [3], the “return to baseline levels in urine (time post-chewing)” value (shortened to “return to baseline levels in urine”) was “approximately 8 h” and the “time of peak in urine post-chewing” value was “approximately 2 h”.

Regarding `CN1CCC=C(C(=O)O)C1` [arecaidine], the “fate of the carboxylic acids in basic conditions” value in data set [1] is “disappeared”. Besides, in data set [2] (saliva), the “return to baseline levels in saliva” value is given as 8 h, the “time of peak in saliva post-chewing” value was not above 2 h and the “detected in saliva above the limit” value was “up to 8 h”. In data set [4], the “elimination half-life (t1/2)” value is listed as 4.3 h. Besides, in data set [3], the “return to baseline levels in urine” value was “approximately 8 h” and the “time of peak in urine post-chewing” value is “approximately 2 h”.

As for `C=CCc1ccc(OC)c(O)c1` [chavibetol], the detection in saliva entry in data set [2] (participant 2, who chewed exclusively betel nut) is “absence”. Also, in data set [2] (participants 1, 3 and 4, who consumed Piper betle leaves in their BQ), the detection in saliva entry is on record as “detected”. Also, in data set [2] (saliva), the “return to baseline levels in saliva” value is given as 2 h and the “time of peak in saliva post-chewing” value was 0.5 to 1 h.

With `C=CCc1ccc(OC)c(OC2OC(C(=O)O)C(O)C(O)C2O)c1` (stereo not shown) [chavibetol glucuronide], in data set [3], the “return to baseline levels in urine” value is “approximately 8 h” and the “time of peak in urine post-chewing” value was “approximately 2 h”.

`CN1CCC[C@H]1c1cccnc1` [nicotine]: the levels in hair entry in data set [5] is listed as “high levels”.

As to `CN1CCCC(C(=O)O)C1` (stereo not shown) [NMNA, N-methylnipecotic acid], the “detection in hair samples” value in data set [5] (hair of participants who chewed betel nuts at least once daily for ½-2 h) is given as “could not detect”. Moreover, the “detection in saliva samples” value in data set [2] (saliva, LC-MS) is “failed”. Also, the “elimination half-life (t1/2)” value in data set [4] is 7.9 h. Besides, the “urinary NMNA excretion” value in data set [4] (subjects consumed water extracts of areca nuts) is on record as 1298 ng/mg creatinine. Also, the “urinary excretion of NMNA relative to that of arecaidine” value in data set [4] (urine) is listed as less than 25%. The “detection in urine samples” value in data set [3] (LC-MS) is recorded as “failed”.

As to `COC(=O)C1=CCCN(C)C1` [arecoline], the “disappearance of arecoline from plasma” value in data set [6] is given as not below 15 min. Moreover, in data set [1], the “stability in basic conditions” value is “not stable” and the “time to hydrolysis to the carboxylic acid” value is listed as “up to 1 hour”. Further, in data set [2] (saliva), the “return to baseline levels in saliva” value turned out to be 8 h, the “time of peak in saliva post-chewing” value is not above 2 h and the “detected in saliva above the limit” value is listed as “up to 8 h”. Moreover, in data set [4], the “elimination half-life (t1/2)” value was 0.97 h. Also, in data set [3], the “return to baseline levels in urine” value was “approximately 8 h” and the “time of peak in urine post-chewing” value is given as “approximately 2 h”.

As for `COC(=O)C1=CCCNC1` [guvacoline], in data set [1], the “stability in basic conditions” value was “not stable” and the “time to hydrolysis to the carboxylic acid” value was “up to 1 hour”. Besides, in data set [2] (saliva), the “return to baseline levels in saliva” value was 8 h, the “time of peak in saliva post-chewing” value was not above 2 h and the “detected in saliva above the limit” value was “up to 8 h”. For the same compound, in data set [3], the “return to baseline levels in urine” value is given as “approximately 8 h” and the “time of peak in urine post-chewing” value is listed as “approximately 2 h”.

As for `CN1C(=O)CC[C@H]1c1cccnc1` [cotinine], in data set [5], the levels in hair result was “high levels”.

The values are drawn from article PMC4967029 (Drug testing and analysis, 2015).
